Reference: patent US9029410B2, “Pharmaceutical compositions for the treatment of movement disorders” (Sarah Herzog Memorial Hospital Ezrath Nashim Association, priority 2003, dated 2015)
Where two headings read alike, the source gives them in different places.

What was measured:
schizophrenia patients [1] = conditions: prior study, Heresco-Levy et al., 1999, Table 3, cited from earlier work
[2] = system: inpatients with treatment-resistant schizophrenia; conditions: glycine 0.8 g/kg/day; 2 patients; ceased following discontinuation
Text: Three of the 14 patients who completed the study were women and 11 were men. Their mean age was 46.5 years (SD=9.6), the mean duration of their illness was 25.8 years (SD=11.0) and the mean duration of their current hospitalization was 3.0 years (SD=3.7).

[3] = system: haloperidol-treated Sprague-Dewley rats
Procedure: In this model, animals are treated chronically with antipsychotics and their vacuous chewing motions are assessed by observation.
Sprague-Dewley rats (Harlan Laboratories, Jerusalem, Israel) weighing 150 to 170 g. were used. The rats were housed in polycarbonate cages (4 in each cage), maintained under a 12 hour-12 hour dark-light (04.00-16.00 hours) cycle, and were allowed water ad libitum. In order to limit neuroleptic-induced weight gain, the food was restricted to 15 g. pellets per animal per day, as used by Andreassen et al (1996). Rats were weighed biweekly throughout the study. Room temperature was maintained at 22±2° C. All procedures were conducted in accordance with local and international laws for the care and use of laboratory animals.
For two weeks prior to the first drug injection, animals were handled daily and habituated to the animal colony and the procedures related to drug administration and video recording situation. Subsequently (week 0), rats underwent a behavior video recording session following which they were randomized to a haloperidol treatment and a control group. The rats in the treatment group received an intramuscular injection in the thigh muscles with haloperidol decanoate (Pericate, Unipharm Ltd., Tel Aviv, Israel), 100 mg/ml in sesame oil, at a dose of 0.35 mg/kg. The control rats were similarly injected with an equal volume of phosphate buffered saline (PBS). Twenty-three G hypodermic needles were used for all injections. […]
Rats underwent a video recorded behavior assessment session 30-150 minutes following the injection. Two weeks after the test day (i.e., post-test day), the video recorded behavior assessment session was repeated in order to investigate longer-term effects of the experimental treatments. […]
A trained observer, unaware of the treatment received by the rats, scored the behavior while watching the videotapes. […] The statistical significance of interaction of the between group factor and the repeated measures factor is determined in the [sequence] software package using the Rao R statistic and the F distribution. […]

[4] = system: inpatients with treatment-resistant schizophrenia
Text: The study was approved by the appropriate institutional review boards. Seventeen stable inpatients meeting DSM-IV criteria for schizophrenia and free of other axis I diagnoses or significant medical illness were enrolled in the study. Diagnosis was established on the basis of semistructured psychiatric interviews, review of all available medical records, and confirmation by two board-certified psychiatrists. […] Medication doses remained fixed throughout the study.
After complete description of the study, written informed consent was obtained from all participating patients. The double-blind, placebo-controlled, crossover study consisted of two random-order 6-week treatment arms (glycine 0.8 g/kg/day, or placebo), separated by a 2-week adjuvant treatment washout. Patients were assessed biweekly with the Positive and Negative Syndrome Scale (PANSS), Brief Psychiatric Rating Scale (BPRS), Simpson-Angus Rating Scale (SAS), and Abnormal Involuntary Movement Scale (AIMS) performed by one trained research psychiatrist, as previously described (3). CBC and SMA-20 measures were assessed biweekly throughout the study. Trough glycine and serine serum levels were assessed at baseline and at the end of the two treatment phases. Data were analyzed by repeated measures ANOVA with within group factor of study phase (glycine/placebo) and time within study phase (pre/post), and between group factor of treatment order.

schizophrenia patients [5] = conditions: prior study, Heresco-Levy et al., 1999, Table 3, cited from earlier work; remark: listed apart in the source
[6] = glycine 0.8 g/kg/day vs placebo, 6 weeks
[7] = glycine 0.8 g/kg/day, week 6, mean, n=14
[8] = glycine phase, baseline, mean, n=14
[9] = mean (sd), reduction over 6 weeks of glycine 0.8 g/kg/day
[10] = mean (sd), reduction over 6 weeks of glycine 0.8 g/kg/day, listed as glycine

**Q.** What does the source list for NCC(=O)O [Glycine, glycine]?
**A.** AIMS score before glycine treatment (schizophrenia patients [1]): 1.9; AIMS score after glycine treatment (schizophrenia patients [1]; not significant vs placebo): 1.4; Adverse effect leading to withdrawal during glycine administration [2]: mild upper gastrointestinal tract discomfort; Number of VCM at baseline vs post-test day ([3]; 2 weeks after acute glycine 1.6 g/kg, p<0.07, VCM returned to pre-treatment levels): did not differ significantly; VCM frequency, glycine vs placebo group at test day ([3]; glycine 1.6 g/kg intraperitoneal, acute, p<0.01): significantly lower VCM frequency; Reduction in the number of VCM episodes ([3]; glycine 1.6 g/kg intraperitoneal, test day vs baseline, 30-150 minutes after injection, p<0.001): 82%; AIMS score decrease during glycine treatment ([4]; 6 weeks glycine, vs 0.3 point increase during placebo, p<0.02): 1.0 point; SAS score decrease during glycine treatment ([4]; 6 weeks glycine, vs 0.5 point increase during placebo, p<0.05): 1.3 points; AIMS, Effect size (d) [4, 6]: 0.6; BPRS Total, Effect size (d) [4, 6]: 1.6; PANSS Cognitive Symptoms, Effect size (d) [4, 6]: 0.9; PANSS Depression, Effect size (d) [4, 6]: 0.7; PANSS Excitement, Effect size (d) [4, 6]: 0.6; PANSS Negative Symptoms, Effect size (d) [4, 6]: 2.1; PANSS Positive Symptoms, Effect size (d) [4, 6]: 0.7; SAS, Effect size (d) [4, 6]: 0.6; AIMS, Score at Week 6 [4, 7]: 2.6; BPRS Total, Score at Week 6 [4, 7]: 36.6; PANSS Cognitive Symptoms, Score at Week 6 [4, 7]: 17.9; PANSS Depression, Score at Week 6 [4, 7]: 13.4; PANSS Excitement, Score at Week 6 [4, 7]: 12.0; PANSS Negative Symptoms, Score at Week 6 [4, 7]: 20.4; PANSS Positive Symptoms, Score at Week 6 [4, 7]: 14.0; SAS, Score at Week 6 [4, 7]: 4.0; PANSS Negative Symptoms, Score at Baseline ([4]; glycine phase, baseline, mean, 14 inpatients on olanzapine or risperidone): 24.6; AIMS, Score at Baseline [4, 8]: 3.6; BPRS Total, Score at Baseline [4, 8]: 42.6; PANSS Cognitive Symptoms, Score at Baseline [4, 8]: 19.1; PANSS Depression, Score at Baseline [4, 8]: 14.4; PANSS Excitement, Score at Baseline [4, 8]: 13.2; PANSS Positive Symptoms, Score at Baseline [4, 8]: 15.4; SAS, Score at Baseline [4, 8]: 5.3; AIMS, % Change during glycine [4, 9]: 32.2 (30.4) %; BPRS Total, % Change during glycine [4, 9]: 13.7 (7.5) %; PANSS Cognitive Symptoms, % Change during glycine [4, 9]: 9.2 (6.8) %; PANSS Depression, % Change during glycine [4, 9]: 7.4 (17.1) %; PANSS Excitement, % Change during glycine [4, 9]: 10.6 (20.9) %; PANSS Negative Symptoms, % Change during glycine [4, 9]: 23.3 (8.4) %; PANSS Positive Symptoms, % Change during glycine [4, 9]: 11.4 (11.7) %; SAS, % Change during glycine [4, 9]: 17.9 (40.1) %; AIMS, % Change during glycine [4, 10]: 32.2%; SAS, % Change during glycine [4, 10]: 18%; SAS score before glycine treatment (schizophrenia patients [5]): 1.3 points; SAS score after glycine treatment (schizophrenia patients [5]; not significant vs placebo): 0.6 points
